Data set [1] relates to neonatal mouse cardiac myocytes. The format is cell-based. The settings on record: for effect of channel blocker on the protective effect of sildenafil: 5-hydroxydecanoate 100 μM, HMR1098 30 μM. As to the method: Neonatal mouse myocytes in culture are incubated with 0.5–5 μM of DOX (in the presence or absence of 1 μM sildenafil) for 18 hours. The cells are then incubated with drug free growth medium for an additional 24 hours. Cytotoxicity of DOX is quantitatively assessed by measuring the percentage of cells killed and the amount of creatine kinase (CK) released into the media. In addition, a trypan blue exclusion assay and propidium iodide nuclear stain are used to quantitate cell death. Since DOX induces cardiomyopathy through the release of reactive oxygen species, lipid peroxidation in the cells is also measured as an index of oxidative damage.
Neonatal mouse cardiac myocyte cultures are used for membrane potential studies. Cells in culture are treated with 0.5–5 μM of DOX (in the presence or absence of 1 μM sildenafil) for 18 hours. The cells are then incubated with drug free growth medium for an additional 24 hours. Additional groups are included where the cells are treated with a mitoKATP channel blocker (5-hydroxydecanoate, 100 μM), surface channel blocker (HMR1098, 30 μM) or cyclosporine, a mitochondrial membrane potential (Ψm) blocker (5 μM). For assessment of apoptosis, the TUNEL assay is used, which is an accurate method for distinguishing apoptosis from necrosis by specifically detecting DNA cleavage and chromatin condensation characteristic of apoptosis. Additionally, positive TUNEL staining directly correlates with the more typical biochemical and morphological aspects of apoptosis. Since an understanding of cell morphology is critical for data interpretation, apoptotic morphology is simultaneously assessed according to accepted scientific criteria previously described (Nor-Avi, 1999). The in situ staining of DNA strand breaks detected by the TUNEL assay along with subsequent morphological observation via epifluorescent, confocal, and electron microscopy, provides significant and reliable data regarding the identification of apoptotic cells, even in tissue samples where apoptosis represents a small segment of the population (Manning 1994). In addition, several other key indicators of apoptosis including annexin-V, cytosolic cytochrome c, caspase 3, caspase 8, as well as poly (ADP-ribose) polymerase cleavage in these groups, are measured. Mitochondrial membrane potential (Ψm) using a fluorescent indicator probe, JC-1 (Molecular Probes, Eugene, Oreg.) is measured.

Data set [2] deals with iNOS vs nNOS. The settings on record: cited from earlier work.
Data set [3] concerns mouse heart, global I-R injury. As to the kind of experiment: Isolated perfused mouse heart (Langendorff), 20 min global ischemia and 30 min reperfusion after in vivo treatment. Particulars: saline+1400W; 1400W 10 mg/kg IP 30 minutes before I-R. As to the method: Adult male outbred ICR mice were supplied by Harlan Inc (Indianapolis, Ind.). Viagra pills (Pfizer Inc) were ground into powder and dissolved in saline. The drug solution was filtered (0.45-μm pore size) before intraperitoneal injection. 1400W, an iNOS inhibitor, was obtained from Alexis. We used an isolated perfused mouse heart model subjected to 20 minutes of global ischemia and 30 minutes of reperfusion (Langendorff mode). Myocardial I-R injury was assessed by measuring infarct size, contractile function, and coronary flow as described previously (Xi, 1999). Twenty-eight mice were randomized into the following 4 groups: (n=6 to 9 per group): (1) saline (0.15 mL IP), (2) sildenafil (0.7 mg/kg IP, equivalent to 50 mg Viagra pill used for patients with erectile dysfunction, given 24 hours before I-R), (3) sildenafil+1400W (10 mg/kg IP, 14 given 30 minutes before I-R), and (4) saline+1400W. Measurement of NOS Isoforms Mice were treated with sildenafil (0.7 mg/kg IP), and their hearts were removed at 15, 30, and 45 minutes and 1, 2, 3, 4, and 24 hours after injection (n=3 per group). Three nontreated hearts were used as controls. Tissue samples were ground under liquid nitrogen and homogenized with TRI Reagent (Molecular Research Center) for extracting total RNA, which was reverse-transcribed into cDNA at 50° C. for 30 minutes using a OneStep reverse transcription (RT)-polymerase chain reaction (PCR) kit from Qiagen. The oligonucleotide primers were synthesized on the basis of published sequences for murine iNOS, eNOS, and GAPDH15 (Integrated DNA Technology). The RT-PCR products were electrophoresed on 1.5% Trisacetate-EDTA agarose gel. The target bands were identified on the basis of their specific size using DNA standards. iNOS and eNOS proteins were measured by Western blots as described previously. 13 In brief, triplicate heart samples were collected 24 hours after saline or sildenafil injection and homogenized in ice-cold RIPA buffer (Upstate Biotechnology). The homogenate was centrifuged at 10,000 g for 10 minutes at 4° C., and supernatant was recovered as the total cellular protein. Total protein (60 μg) from each sample was separated by SDS-PAGE on 10% acrylamide gels, transferred to a polyvinylidine difluoride membrane, and then blocked with 5% nonfat dry milk in Tris-buffered saline. The membrane was subsequently incubated with a rabbit polyclonal antibody (dilution 1:500, Santa Cruz) reacting specifically to iNOS, eNOS, or actin. The secondary antibody was a horseradish peroxidase-conjugated anti-rabbit IgG (1:1000 dilution, Amersham). The membranes were developed using enhanced chemiluminescence and exposed to x-ray film. The mRNA and protein expression were quantified by scanning each of the RT-PCR or Western blot band using a densitometer (Bioquant 98). […]

Data set [4] relates to DOX-related cardiac complications. Particulars: clinical use; cited from earlier work.
Data set [5] concerns rabbit heart, ischemia/reperfusion injury. Description: In situ rabbit model of myocardial infarction (30 min coronary occlusion, 180 min reperfusion), infarct size by TTC staining. The settings on record: control rabbits, 5-HD 5 mg/kg IV 10 min prior to ischemia. It is filed as in vivo.
The nature of data set [6]: Systemic hemodynamics (blood pressure, heart rate, rate pressure product) in rabbits. It is filed as in vivo, rabbit. Particulars: 5-HD 5 mg/kg IV 10 min prior to ischemia, control rabbits.

Marks after values point to notes of the source that are not given here.

For the compound `CNC(=S)NS(=O)(=O)c1cc(CCNC(=O)c2cc(Cl)ccc2OC)ccc1OC` [HMR1098], in data set [1], the “effect of channel blocker on the protective effect of sildenafil” value is on record as “not by HMR1098”.
`CSC(N)=NCCC[C@H](N)C(=O)O` [SMT, S-methyl-L-thiocitrulline]: in data set [2], the “selectivity for iNOS vs nNOS” value is reported as “approximately 40 fold”.
Take `CC(=N)NCc1cccc(CN)c1` [1400W]: the infarct size in data set [3] is listed as 24.5±1.0%. The “selectivity for iNOS vs nNOS” value in data set [2] was “approximately 40 fold”.
Consider `COc1cccc2c1C(=O)c1c(O)c3c(c(O)c1C2=O)C[C@@](O)(C(=O)CO)C[C@@H]3O[C@H]1C[C@H](N)[C@H](O)[C@H](C)O1` [DOX, Doxorubicin], for which, in data set [1] (0.5–5 μM DOX for 18 hours), the “apoptosis indicators (TUNEL, cytochrome c translocation, caspase-3, PARP cleavage, Ψm dissipation)” value is given as “TUNEL positivity” and the “necrotic cell death (CK release, uptake of trypan blue)” value is “increased necrotic cell death”.
On to `C[C@@H](CN1CC(=O)NC(=O)C1)N1CC(=O)NC(=O)C1` [dexrazoxane], for which the “reduction of DOX-related cardiac complications” value in data set [4] was 50%.
On to `CC(=N)NCCCC[C@H](N)C(=O)O.Cl` [L-NIL, L-N-6-(1-iminoethyl)lysine hydrochloride], for which, in data set [2], the “selectivity for iNOS vs nNOS” value is “approximately 40 fold”.
In the case of `CCCCCC(O)CCCC(=O)O` (stereo not shown) [5-HD, 5-hydroxydecanoate], in data set [5], the infarct size was 33.5±1.9 % of risk area. The “effect of channel blocker on the protective effect of sildenafil” value in data set [1] was “abolished”. Further, the HR in data set [6] (30-min Ischemia) is given as 185 ± 8 beats/min; in data set [6] (Baseline), 171 ± 13^d,e beats/min; in data set [6] (Preischemia), 178 ± 13 beats/min; in data set [6] (Reperfusion (60 min)) it was 162 ± 8 beats/min; in data set [6] (Reperfusion (120 min)) it was 160 ± 8 beats/min; in data set [6] (Reperfusion (180 min)), 160 ± 7 beats/min. Moreover, the MAP in data set [6] (30-min Ischemia) is 95 ± 5^a mmHg; in data set [6] (Baseline) it was 120 ± 4 mmHg; in data set [6] (Preischemia) it was 110 ± 6 mmHg; in data set [6] (Reperfusion (60 min)) it was 97 ± 5^a mmHg; in data set [6] (Reperfusion (120 min)), 91 ± 5^a mmHg; in data set [6] (Reperfusion (180 min)), 91 ± 7^a mmHg. Further, the “RPP (systolic arterial pressure × HR)” value is recorded as 19215 ± 999 in data set [6] (30-min Ischemia); 22477 ± 1849 in data set [6] (Baseline); 20977 ± 1373 in data set [6] (Preischemia); 17050 ± 1132 in data set [6] (Reperfusion (60 min)); 15770 ± 984^a in data set [6] (Reperfusion (120 min)); 16300 ± 1503^a in data set [6] (Reperfusion (180 min)).
